Here are results for one compound from PMC9785850, “Encorafenib Acts as a Dual-Activity Chemosensitizer through Its Inhibitory Effect on ABCC1 Transporter In Vitro and Ex Vivo” (Pharmaceutics, 2022).

Structures are written as SMILES.

One may read the IC50 as the concentration needed to halve the response being measured. A lower IC50 goes with greater potency.

Assay [1] concerns the target T1, ABCC1 (Homo sapiens, UniProt P33527).
T1 construct: human ABCC1 overexpressed in MDCKII cells
The assay can be described thus: daunorubicin accumulation assay in MDCKII-ABCC1 cells, flow cytometry. The format is cell-based. For orientation: In flow cytometry, cells or beads pass a laser one at a time.

In assay [2] the target is T2, P-glycoprotein (ABCB1) (Homo sapiens, UniProt P08183).
T2 construct: human ABCB1 overexpressed in MDCKII cells
The assay can be described thus: daunorubicin accumulation assay in MDCKII-ABCB1 cells, flow cytometry. The format is cell-based.

T1 sequence (P33527 whole entry): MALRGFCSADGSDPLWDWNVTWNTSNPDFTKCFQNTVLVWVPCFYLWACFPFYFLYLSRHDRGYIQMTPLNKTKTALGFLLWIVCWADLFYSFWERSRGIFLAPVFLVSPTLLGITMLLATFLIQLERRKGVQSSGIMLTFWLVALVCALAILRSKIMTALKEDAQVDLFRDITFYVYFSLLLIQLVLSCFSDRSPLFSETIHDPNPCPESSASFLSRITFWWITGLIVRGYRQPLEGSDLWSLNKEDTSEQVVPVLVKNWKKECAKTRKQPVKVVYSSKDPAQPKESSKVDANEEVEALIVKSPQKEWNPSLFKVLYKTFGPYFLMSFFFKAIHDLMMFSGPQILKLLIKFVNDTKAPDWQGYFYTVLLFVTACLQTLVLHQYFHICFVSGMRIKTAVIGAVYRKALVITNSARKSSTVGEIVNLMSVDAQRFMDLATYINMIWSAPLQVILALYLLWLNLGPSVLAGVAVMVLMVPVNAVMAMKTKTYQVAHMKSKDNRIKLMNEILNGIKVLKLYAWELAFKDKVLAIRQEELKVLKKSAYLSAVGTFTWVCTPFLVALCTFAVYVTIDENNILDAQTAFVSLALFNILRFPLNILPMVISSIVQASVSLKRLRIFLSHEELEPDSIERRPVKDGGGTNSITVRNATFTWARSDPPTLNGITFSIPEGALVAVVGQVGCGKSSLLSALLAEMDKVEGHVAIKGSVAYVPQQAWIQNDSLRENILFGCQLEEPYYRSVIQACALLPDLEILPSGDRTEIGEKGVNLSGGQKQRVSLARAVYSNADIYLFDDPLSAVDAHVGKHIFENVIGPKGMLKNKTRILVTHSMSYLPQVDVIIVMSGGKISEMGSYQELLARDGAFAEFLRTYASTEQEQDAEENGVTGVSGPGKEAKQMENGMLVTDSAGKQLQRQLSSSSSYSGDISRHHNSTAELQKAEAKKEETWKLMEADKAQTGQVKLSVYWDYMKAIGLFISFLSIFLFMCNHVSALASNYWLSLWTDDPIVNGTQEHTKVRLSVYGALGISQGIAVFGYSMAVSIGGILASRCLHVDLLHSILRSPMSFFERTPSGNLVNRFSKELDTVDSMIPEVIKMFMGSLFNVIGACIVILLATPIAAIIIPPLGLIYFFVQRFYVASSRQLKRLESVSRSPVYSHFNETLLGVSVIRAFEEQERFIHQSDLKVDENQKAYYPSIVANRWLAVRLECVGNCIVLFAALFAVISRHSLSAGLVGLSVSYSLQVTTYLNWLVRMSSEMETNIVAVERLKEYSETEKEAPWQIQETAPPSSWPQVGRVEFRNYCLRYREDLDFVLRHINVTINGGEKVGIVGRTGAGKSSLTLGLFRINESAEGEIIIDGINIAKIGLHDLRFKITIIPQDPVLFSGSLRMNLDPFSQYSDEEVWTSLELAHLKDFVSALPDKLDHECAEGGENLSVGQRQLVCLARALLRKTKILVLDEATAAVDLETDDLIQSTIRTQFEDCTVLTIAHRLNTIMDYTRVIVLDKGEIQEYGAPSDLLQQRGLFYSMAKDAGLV
T2 sequence (P08183 whole entry): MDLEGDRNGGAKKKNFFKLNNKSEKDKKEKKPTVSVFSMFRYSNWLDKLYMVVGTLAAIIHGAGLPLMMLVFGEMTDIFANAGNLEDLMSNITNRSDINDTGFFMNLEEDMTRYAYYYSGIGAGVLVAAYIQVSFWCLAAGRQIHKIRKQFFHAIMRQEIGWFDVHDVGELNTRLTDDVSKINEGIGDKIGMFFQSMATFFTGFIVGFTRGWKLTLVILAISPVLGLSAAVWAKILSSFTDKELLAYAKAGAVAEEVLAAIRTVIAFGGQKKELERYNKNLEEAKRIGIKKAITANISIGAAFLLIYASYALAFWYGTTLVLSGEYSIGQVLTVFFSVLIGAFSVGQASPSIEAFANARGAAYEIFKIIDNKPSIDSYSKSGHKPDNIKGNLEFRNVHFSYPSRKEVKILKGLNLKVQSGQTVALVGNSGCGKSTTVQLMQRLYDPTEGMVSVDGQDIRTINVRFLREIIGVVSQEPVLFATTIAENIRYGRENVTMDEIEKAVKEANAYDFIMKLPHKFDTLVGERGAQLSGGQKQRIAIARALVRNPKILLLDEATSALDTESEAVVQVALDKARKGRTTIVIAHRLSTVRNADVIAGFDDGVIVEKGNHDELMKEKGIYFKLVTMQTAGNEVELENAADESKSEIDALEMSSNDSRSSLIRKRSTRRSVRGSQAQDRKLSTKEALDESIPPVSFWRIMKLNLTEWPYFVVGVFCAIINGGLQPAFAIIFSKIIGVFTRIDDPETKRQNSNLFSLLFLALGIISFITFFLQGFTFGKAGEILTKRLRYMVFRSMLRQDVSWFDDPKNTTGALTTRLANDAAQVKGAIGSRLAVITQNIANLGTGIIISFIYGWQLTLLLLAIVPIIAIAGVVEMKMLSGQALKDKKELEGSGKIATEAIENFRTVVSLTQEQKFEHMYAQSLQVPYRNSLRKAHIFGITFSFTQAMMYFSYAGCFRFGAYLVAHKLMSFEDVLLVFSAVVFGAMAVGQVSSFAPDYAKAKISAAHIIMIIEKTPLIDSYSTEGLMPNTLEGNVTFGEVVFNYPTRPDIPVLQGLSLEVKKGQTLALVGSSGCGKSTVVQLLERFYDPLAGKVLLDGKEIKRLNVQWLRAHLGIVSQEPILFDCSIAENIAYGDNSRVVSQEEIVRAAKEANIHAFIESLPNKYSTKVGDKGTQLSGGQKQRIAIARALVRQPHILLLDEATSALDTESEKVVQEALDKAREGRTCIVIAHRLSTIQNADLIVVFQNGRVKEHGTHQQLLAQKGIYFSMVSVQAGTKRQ

With `COC(=O)N[C@@H](C)CNc1nccc(-c2cn(C(C)C)nc2-c2cc(Cl)cc(NS(C)(=O)=O)c2F)n1` [encorafenib], the IC50 turned out to be 8.63 µM in assay [1] and 25.1 µM in assay [2].
